Each block holds one molecule with its values, some of them ahead of it.
Key:
Conditions in all cases: read-out: IC50
[1] = molecular target: T1, Inhibitor of nuclear factor kappa-B kinase subunit beta (Homo sapiens, UniProt O14920); assay: biochemical; assay type: cell-based
T1 sequence (O14920 whole entry): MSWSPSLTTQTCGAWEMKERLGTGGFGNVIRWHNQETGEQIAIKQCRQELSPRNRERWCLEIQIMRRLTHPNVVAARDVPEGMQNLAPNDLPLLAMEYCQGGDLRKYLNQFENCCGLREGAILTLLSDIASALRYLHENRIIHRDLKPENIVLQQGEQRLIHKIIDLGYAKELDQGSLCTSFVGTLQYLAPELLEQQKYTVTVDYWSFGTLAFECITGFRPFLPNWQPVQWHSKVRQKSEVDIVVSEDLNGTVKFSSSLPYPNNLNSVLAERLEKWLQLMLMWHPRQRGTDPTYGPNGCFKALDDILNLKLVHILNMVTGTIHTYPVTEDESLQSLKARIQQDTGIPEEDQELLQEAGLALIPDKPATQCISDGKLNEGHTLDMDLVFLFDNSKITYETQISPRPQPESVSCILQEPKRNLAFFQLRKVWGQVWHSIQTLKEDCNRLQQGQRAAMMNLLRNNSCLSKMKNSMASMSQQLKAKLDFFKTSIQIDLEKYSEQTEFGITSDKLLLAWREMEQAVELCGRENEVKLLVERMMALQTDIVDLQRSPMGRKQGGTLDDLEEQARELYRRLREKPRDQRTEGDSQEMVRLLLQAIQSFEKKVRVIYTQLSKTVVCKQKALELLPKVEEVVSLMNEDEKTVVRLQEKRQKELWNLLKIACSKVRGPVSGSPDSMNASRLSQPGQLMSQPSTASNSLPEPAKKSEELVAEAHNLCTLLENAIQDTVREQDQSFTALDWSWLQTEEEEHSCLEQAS

[2] = molecular target: RAC-alpha serine/threonine-protein kinase (Homo sapiens, UniProt P31749); assay: Inhibition of AKT1 expressed in Escherichia coli or baculovirus-infected insect cells by scintillation proximity assay
Sequence of RAC-alpha serine/threonine-protein kinase (P31749 whole entry): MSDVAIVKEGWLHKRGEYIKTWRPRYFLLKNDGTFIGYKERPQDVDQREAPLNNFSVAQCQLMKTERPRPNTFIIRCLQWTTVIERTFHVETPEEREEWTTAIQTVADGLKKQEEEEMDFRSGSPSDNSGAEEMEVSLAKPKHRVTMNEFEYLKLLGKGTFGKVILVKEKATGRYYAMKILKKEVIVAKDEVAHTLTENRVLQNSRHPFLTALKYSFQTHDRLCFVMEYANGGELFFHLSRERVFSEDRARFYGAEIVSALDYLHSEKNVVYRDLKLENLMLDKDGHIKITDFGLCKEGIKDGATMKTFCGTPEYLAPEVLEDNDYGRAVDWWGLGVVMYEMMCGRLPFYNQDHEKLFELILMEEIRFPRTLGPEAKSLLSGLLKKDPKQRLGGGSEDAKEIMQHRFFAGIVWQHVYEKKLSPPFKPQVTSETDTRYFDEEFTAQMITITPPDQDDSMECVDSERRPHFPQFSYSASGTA

[3] = molecular target: Mitogen-activated protein kinase 8 (Homo sapiens, UniProt P45983); assay: Inhibition of JNK1 expressed in Escherichia coli or baculovirus-infected insect cells by TR-FRET assay
Sequence of Mitogen-activated protein kinase 8 (P45983 whole entry): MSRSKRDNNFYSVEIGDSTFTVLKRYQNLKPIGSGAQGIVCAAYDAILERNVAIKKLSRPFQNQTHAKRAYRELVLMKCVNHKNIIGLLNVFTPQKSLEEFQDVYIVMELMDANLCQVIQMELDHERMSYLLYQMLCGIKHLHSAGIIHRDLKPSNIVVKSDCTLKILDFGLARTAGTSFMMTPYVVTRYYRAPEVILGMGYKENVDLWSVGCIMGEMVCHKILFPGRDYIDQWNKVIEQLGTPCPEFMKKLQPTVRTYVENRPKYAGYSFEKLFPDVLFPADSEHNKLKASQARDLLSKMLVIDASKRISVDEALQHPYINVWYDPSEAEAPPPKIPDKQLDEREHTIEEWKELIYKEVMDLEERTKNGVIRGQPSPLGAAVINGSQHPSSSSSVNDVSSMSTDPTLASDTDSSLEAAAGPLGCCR

- IC50 [1]: 15 nM
Structure (SMILES): Cc1cc2c(-c3ccc(S(=O)(=O)N(C)CCO)cc3)ccnc2[nH]1

- IC50 [2]: 190 nM
Structure (SMILES): NCC(NC(=O)c1ccc(-c2ccnc3[nH]ccc23)s1)c1ccccc1 (stereo not drawn)

- IC50 [3]: < 500 nM
Structure (SMILES): Nc1ccc(-c2cnc3[nH]cc(-c4ccoc4)c3c2)cc1
